Test results published in PubChem BioAssay (NCI).
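Grown in 96-well plates, cells were treated for 48 hours with each compound at five concentrations. Insufficient inhibition: endpoint recorded as highest concentration tested. TGI marks complete inhibition of growth.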

Columns and labels:
Test in all cases: growth of human tumour cells (NCI), 48 h
[1] = tested on: SF-295 CNS
[2] = tested on: COLO 205 colon
[3] = tested on: SNB-19 CNS
[4] = tested on: SK-MEL-5 melanoma
[5] = tested on: CCRF-CEM leukemia
[6] = tested on: HCT-116 colon
[7] = tested on: HS 578T breast
[8] = tested on: SK-MEL-2 melanoma
[9] = tested on: MDA-MB-435
[10] = tested on: UACC-257 melanoma

C=C[C@@H]1C(CO)=CCC2[C@H]1CCC1C(C)(C)C(=O)CC[C@]21C (stereo not given in full)
TGI [1]: > 100 µM
TGI [2]: > 100 µM
TGI [3]: > 100 µM
TGI [4]: > 100 µM
TGI [5]: > 100 µM
TGI [6]: > 100 µM
TGI [7]: > 100 µM
TGI [8]: > 100 µM
TGI [9]: > 100 µM
TGI [10]: > 100 µM

O=c1oc(-c2ccc(O)c(O)c2)cc2cccc(O)c12
TGI [1]: 80.2 µM
TGI [2]: > 48.3 µM
TGI [3]: > 76.9 µM
TGI [4]: 23.4 µM
TGI [5]: > 46.1 µM
TGI [6]: 23.7 µM
TGI [7]: 73.2 µM
TGI [8]: 69.7 µM
TGI [9]: 60.3 µM
TGI [10]: 61.3 µM

CC1CC[C@@]2(OC1)OC1C[C@H]3[C@@H]4CC[C@H]5CC(OC6OC(CO)C(OC7OC(CO)C(O)C(O)C7OC7OC(CO)C(O)C(O)C7O)C(O)C6O)CCC5(C)[C@H]4CCC3(C)C1[C@@H]2C (stereo not given in full)
TGI [1]: 11 µM
TGI [2]: 1.77 µM
TGI [3]: 10.3 µM
TGI [4]: 13.5 µM
TGI [5]: 4.1 µM
TGI [6]: 7.34 µM
TGI [7]: 7.44 µM
TGI [8]: 8.05 µM
TGI [9]: 9.7 µM
TGI [10]: 11.6 µM

O=C(NCCN1CCOCC1)c1ccc2cc(C(=O)N3CC(CCl)c4ccc([N+](=O)[O-])cc43)[nH]c2c1 (stereo not given)
TGI [1]: 13.3 µM
TGI [2]: > 100 µM
TGI [3]: 28.8 µM
TGI [4]: 4.73 µM
TGI [5]: > 100 µM
TGI [6]: > 100 µM
TGI [7]: 52.4 µM
TGI [8]: 32.7 µM
TGI [9]: 49.2 µM
TGI [10]: 86.8 µM

CCOc1cc(C2CC(c3ccc(NS(=O)(=O)c4cc([N+](=O)[O-])ccc4C)cc3)=NN2C(=O)c2ccccc2)ccc1O (stereo not given)
TGI [1]: 87.7 µM
TGI [2]: 31.4 µM
TGI [3]: > 100 µM
TGI [4]: 37.8 µM
TGI [5]: > 100 µM
TGI [6]: 56.5 µM
TGI [7]: > 100 µM
TGI [8]: 30.9 µM
TGI [9]: > 100 µM
TGI [10]: 91.5 µM

CN(C)c1ccc(C=C2N=C(c3ccccc3)N(c3cc(C(=O)c4ccccc4)ccc3N3C(=O)/C(=C/c4ccc(N(C)C)cc4)N=C3c3ccccc3)C2=O)cc1
TGI [1]: 27.1 µM
TGI [2]: 19.4 µM
TGI [3]: > 100 µM
TGI [4]: > 100 µM
TGI [5]: > 100 µM
TGI [6]: 95.4 µM
TGI [7]: > 100 µM
TGI [8]: 21.4 µM
TGI [9]: 4.42 µM
TGI [10]: > 100 µM

CC(C)/C(Cl)=N\OC(=O)Nc1ccc(C#N)cc1
TGI [1]: 33.2 µM
TGI [2]: 3.24 µM
TGI [3]: 33.7 µM
TGI [4]: 9.91 µM
TGI [5]: 6.85 µM
TGI [6]: 17.1 µM
TGI [7]: 39.8 µM
TGI [8]: 25.6 µM
TGI [9]: 20.8 µM
TGI [10]: 25.3 µM

Nc1c(-c2cccc3ccccc23)c2ccc([N+](=O)[O-])cc2c(=O)n1-c1nc2ccccc2s1
TGI [1]: > 34.2 µM
TGI [2]: > 100 µM
TGI [3]: > 49.4 µM
TGI [4]: 37.7 µM
TGI [5]: > 100 µM
TGI [6]: > 40.2 µM
TGI [7]: 20.9 µM
TGI [8]: 19.2 µM
TGI [9]: > 100 µM
TGI [10]: > 80.8 µM

Cc1csc(-c2cn(C)c3c2C(=O)C(N)=CC3=O)n1
TGI [1]: 20.8 µM
TGI [2]: > 100 µM
TGI [3]: > 100 µM
TGI [4]: 3.27 µM
TGI [5]: > 100 µM
TGI [6]: > 100 µM
TGI [7]: > 80.2 µM
TGI [8]: > 82.7 µM
TGI [9]: 15.3 µM
TGI [10]: 32.6 µM

CN(C)CCCN1C(=S)N(CCCN(C)C)c2c3cc(O)ccc3nc3c([N+](=O)[O-])ccc1c23
TGI [1]: 19 µM
TGI [2]: 15.9 µM
TGI [3]: 13.9 µM
TGI [4]: 12.1 µM
TGI [5]: 19 µM
TGI [6]: 6.07 µM
TGI [7]: 24.4 µM
TGI [8]: 15.2 µM
TGI [9]: 15.3 µM
TGI [10]: 21.2 µM

COc1ccc(C#CC(=O)O)c(OC)c1
TGI [1]: > 100 µM
TGI [2]: > 100 µM
TGI [3]: > 100 µM
TGI [4]: > 100 µM
TGI [5]: > 100 µM
TGI [6]: > 100 µM
TGI [7]: > 100 µM
TGI [8]: > 100 µM
TGI [9]: > 100 µM
TGI [10]: > 100 µM

COc1cc(C2SCC(=O)N2c2ccc(NC(=O)c3ccc(N4C(=O)CSC4c4cc(OC)c(OC)c(OC)c4)cc3)cc2)cc(OC)c1OC (stereo not given)
TGI [1]: > 100 µM
TGI [2]: > 100 µM
TGI [3]: > 100 µM
TGI [4]: > 100 µM
TGI [5]: > 100 µM
TGI [6]: > 100 µM
TGI [7]: > 100 µM
TGI [8]: > 100 µM
TGI [9]: 61.4 µM
TGI [10]: > 100 µM

O=C1/C(=C\c2cccc(Oc3ccccc3)c2)S(=O)(=O)C(c2ccccc2)N1Cc1ccccc1 (stereo not given)
TGI [1]: > 100 µM
TGI [2]: 57 µM
TGI [3]: 55.6 µM
TGI [4]: 39.3 µM
TGI [5]: > 100 µM
TGI [6]: > 100 µM
TGI [7]: 40.5 µM
TGI [8]: 40.7 µM
TGI [9]: 96.5 µM
TGI [10]: 62.2 µM

N#CC(C#N)=CNC(=S)c1ccncc1
TGI [1]: > 100 µM
TGI [2]: > 100 µM
TGI [3]: > 100 µM
TGI [4]: > 100 µM
TGI [5]: > 100 µM
TGI [6]: > 100 µM
TGI [7]: > 100 µM
TGI [8]: > 100 µM
TGI [9]: > 100 µM
TGI [10]: > 100 µM

Brc1cccc(Nc2nc(-c3cccs3)nc3ccc(Br)cc23)c1
TGI [1]: 45.1 µM
TGI [2]: > 100 µM
TGI [3]: 98.7 µM
TGI [4]: 30.9 µM
TGI [5]: > 100 µM
TGI [6]: > 100 µM
TGI [7]: > 100 µM
TGI [8]: 94.5 µM
TGI [9]: 37.2 µM
TGI [10]: 74 µM

CC(=O)N/N=C1\NC(=O)C[C@H]2[C@@H]3CC=C4C[C@@H](OC(C)=O)CC[C@]4(C)[C@H]3CC[C@]12C
TGI [1]: 45.1 µM
TGI [2]: > 100 µM
TGI [3]: 39.9 µM
TGI [4]: > 100 µM
TGI [5]: > 100 µM
TGI [6]: > 100 µM
TGI [7]: 88.6 µM
TGI [8]: > 100 µM
TGI [9]: > 100 µM
TGI [10]: > 100 µM

O=C1c2cc3c(cc2CC1Br)CCC3 (stereo not given)
TGI [1]: 11.5 µM
TGI [2]: 3.85 µM
TGI [3]: 27.6 µM
TGI [4]: 3.36 µM
TGI [5]: 2.18 µM
TGI [6]: 3.03 µM
TGI [7]: > 100 µM
TGI [8]: 5.2 µM
TGI [9]: 4.23 µM
TGI [10]: 5.1 µM

O=c1c2cc3c(cc2[nH]c2ncccc12)OCO3
TGI [1]: > 10 µM
TGI [2]: > 10 µM
TGI [3]: > 10 µM
TGI [4]: > 10 µM
TGI [5]: > 10 µM
TGI [6]: > 10 µM
TGI [7]: > 10 µM
TGI [8]: > 10 µM
TGI [9]: > 10 µM
TGI [10]: > 10 µM

CCN(CC)CCOc1ccc(N2C(=O)c3cc(OC)c(OC)cc3C2=O)cc1
TGI [1]: > 100 µM
TGI [2]: > 100 µM
TGI [3]: > 100 µM
TGI [4]: > 100 µM
TGI [5]: > 100 µM
TGI [6]: > 100 µM
TGI [7]: > 100 µM
TGI [8]: > 100 µM
TGI [9]: > 100 µM
TGI [10]: > 100 µM

CC(C)COP(=O)(OCC(C)C)C(NS(=O)(=O)c1ccccc1)(C(F)(F)F)C(F)(F)F
TGI [1]: 37 µM
TGI [2]: 3.94 µM
TGI [3]: 54.1 µM
TGI [4]: 33 µM
TGI [5]: 36.6 µM
TGI [6]: 21.7 µM
TGI [7]: 97.9 µM
TGI [8]: 14.3 µM
TGI [9]: 22.3 µM
TGI [10]: 17.5 µM

CCCn1c(CN(Cc2nc3ccccc3n2CCC)Cc2nc3ccccc3n2CCC)nc2ccccc21
TGI [1]: 30.7 µM
TGI [2]: 13 µM
TGI [3]: > 100 µM
TGI [4]: 18.1 µM
TGI [5]: 21.7 µM
TGI [6]: 13.6 µM
TGI [7]: > 95.2 µM
TGI [8]: 35.4 µM
TGI [9]: 15.3 µM
TGI [10]: > 42.5 µM

O=C(/C=C/c1ccsc1)c1ccsc1
TGI [1]: > 100 µM
TGI [2]: 52.8 µM
TGI [3]: 47.7 µM
TGI [4]: 35.1 µM
TGI [5]: 45.2 µM
TGI [6]: 30.3 µM
TGI [7]: > 100 µM
TGI [8]: > 100 µM
TGI [9]: 42.4 µM
TGI [10]: 39.6 µM

C/C(CC1C2CCCC1C2)=N\NC(N)=O (stereo not given)
TGI [1]: > 100 µM
TGI [2]: > 100 µM
TGI [3]: > 100 µM
TGI [4]: > 100 µM
TGI [5]: > 100 µM
TGI [6]: > 100 µM
TGI [7]: > 100 µM
TGI [8]: > 100 µM
TGI [9]: > 100 µM
TGI [10]: > 100 µM

CCCCC1c2c([nH]c3ccccc23)C2C(=O)N(c3ccc(OC)cc3)C(=O)C2C1CCC (stereo not given)
TGI [1]: > 10 µM
TGI [2]: 6.34 µM
TGI [3]: > 10 µM
TGI [4]: > 10 µM
TGI [5]: 9.12 µM
TGI [6]: 7.56 µM
TGI [7]: 4.81 µM
TGI [8]: > 10 µM
TGI [9]: 4.29 µM
TGI [10]: 9.62 µM

Cc1ccccc1C(O)(c1nccn1C)c1nccn1C
TGI [1]: > 100 µM
TGI [2]: > 100 µM
TGI [3]: > 100 µM
TGI [4]: > 100 µM
TGI [5]: > 100 µM
TGI [6]: > 100 µM
TGI [7]: > 100 µM
TGI [8]: > 100 µM
TGI [9]: > 100 µM
TGI [10]: > 100 µM

O=P(c1ccccc1)(c1ccccc1)N1O[C@@H](c2ccccc2)C=C[C@H]1c1ccccc1
TGI [1]: 28.7 µM
TGI [2]: 31.2 µM
TGI [3]: 30 µM
TGI [4]: 24.6 µM
TGI [5]: 53.5 µM
TGI [6]: 16.1 µM
TGI [7]: 44.6 µM
TGI [8]: 24.9 µM
TGI [9]: 18.7 µM
TGI [10]: 26.3 µM

CO[C@]12CC(=O)C3(C(C[C@H]4CC5CC=C6C[C@@H](OC(C)=O)CC[C@]6(OC(C)=O)C5C[C@@]43C)C1)C1C[C@H]3[C@@H]4CC=C5C[C@@H](OC(C)=O)CC[C@]5(OC(C)=O)[C@H]4CC[C@]3(C)C12 (stereo not given in full)
TGI [1]: 54 µM
TGI [2]: 12.7 µM
TGI [3]: 63.6 µM
TGI [4]: 14.7 µM
TGI [5]: > 100 µM
TGI [6]: > 100 µM
TGI [7]: 88.9 µM
TGI [8]: 41.1 µM
TGI [9]: > 100 µM
TGI [10]: > 100 µM
